This is an account of results in ChEMBL document CHEMBL5230100, “Novel quinazoline-based EGFR kinase inhibitors: A review focussing on SAR and molecular docking studies (2015-2019)” (Eur J Med Chem, 2020).

The subject of data set [1] is A549. Kind of data set: Anticancer activity against human A549 cells assessed as cell growth inhibition incubated for 24 hrs by MTT assay. Format: functional, cell-based. The settings on record: A549, 24 h. A general note: Formazan colour is commonly taken as a measure of viable cells.
The target in data set [2] is T1, Receptor tyrosine-protein kinase erbB-2 (Homo sapiens, UniProt P04626).
In data set [3] the target is T2, Epidermal growth factor receptor (Homo sapiens, UniProt P00533). Kind of data set: Inhibition of human EGFR incubated for 1 hrs in presence of ATP by ELISA assay. Background: An ELISA detects its analyte on a solid surface through an enzyme-linked reagent.
Data set [4] concerns A549. Kind of data set: cells. Type of data set: functional, cell-based. The conditions noted are these: Homo sapiens, A549, 72 h.
Description: Antiproliferative activity against human A549 cells assessed as cell growth inhibition incubated for 72 hrs by MTT assay
The nature of data set [5]: cells. Format: functional, cell-based. The settings on record: Homo sapiens, HBE, 72 h.
Description: Antiproliferative activity against human HBE cells assessed as cell growth inhibition incubated for 72 hrs by MTT assay
Data set [6] concerns A-431. Kind of data set: cells. Type of data set: functional, cell-based. The conditions noted are these: Homo sapiens, A-431, 72 h.
Description: Antiproliferative activity against human A-431 cells assessed as cell growth inhibition incubated for 72 hrs by MTT assay
Data set [7] deals with A549. Kind of data set: Induction of apoptosis in human A549 cells assessed as late apoptotic cells measured after 48 hrs by Annexin V-FITC/ Propidium iodide staining based flow cytometry relative to control. Type of data set: functional. In general terms: A flow cytometer gives signals particle by particle.
The target in data set [8] is T2, Epidermal growth factor receptor. Description: Inhibition of EGFR (unknown origin) incubated for 1 hrs by ELISA assay.
For data set [9], the target named is T1, Receptor tyrosine-protein kinase erbB-2. Kind of data set: Inhibition of HER2 (unknown origin) incubated for 1 hrs by ELISA assay.
Data set [10] deals with MDA-MB-231. Kind of data set: Anticancer activity against human MDA-MB-231 cells assessed as cell growth inhibition incubated for 24 hrs by MTT assay. Format: functional, cell-based. The conditions noted are these: MDA-MB-231, 24 h.
In data set [11] the test system is MDA-MB-231. Description: Cytotoxicity against human MDA-MB-231 assessed as radio sensitizing effect incubated for 24 hrs in presence of gamma irradiation by MTT assay. Format: functional.
The subject of data set [12] is HepG2. Description: Antiproliferative activity against human HepG2 cells assessed as cell growth inhibition incubated for 72 hrs by MTT assay. Type of data set: functional, cell-based. The settings on record: HepG2, 72 h.
The subject of data set [13] is MCF7. Kind of data set: Antiproliferative activity against human MCF7 cells assessed as cell growth inhibition incubated for 72 hrs by MTT assay. Type of data set: functional, cell-based. The settings on record: MCF7, 72 h.
In data set [14] the target is T2, Epidermal growth factor receptor.
In data set [15] the target is Epidermal growth factor receptor (Homo sapiens, UniProt P00533, T790M/L858R).
For data set [16], the target named is T2, Epidermal growth factor receptor. The source holds these as a separate data set.
Data set [17] deals with HT-29. Description: Antiproliferative activity against human HT-29 cells assessed as cell growth inhibition incubated for 72 hrs under normoxia condition by SRB assay. Format: functional, cell-based. The conditions noted are these: HT-29, 72 h.
Data set [18] relates to HT-29. Kind of data set: Antiproliferative activity against human HT-29 cells assessed as cell growth inhibition incubated for 72 hrs under hypoxia condition by SRB assay. Type of data set: functional, cell-based. The settings on record: HT-29, 72 h.
For data set [19], the system named is A549. Description: Antiproliferative activity against human A549 cells assessed as cell growth inhibition incubated for 72 hrs under normoxia condition by SRB assay. Type of data set: functional, cell-based. The settings on record: A549, 72 h.
Data set [20] deals with A549. Kind of data set: Antiproliferative activity against human A549 cells assessed as cell growth inhibition incubated for 72 hrs under hypoxia condition by SRB assay. Format: functional, cell-based. The settings on record: A549, 72 h.
In data set [21] the test system is A549. Kind of data set: Antiproliferative activity against human A549 cells assessed as cell growth inhibition incubated for 24 hrs by MTT assay. The conditions noted are these: A549, 24 h. Type of data set: functional, cell-based.
Data set [22] concerns A-431. Description: Antiproliferative activity against human A-431 cells assessed as cell growth inhibition incubated for 24 hrs by MTT assay. Format: functional.
The test system of data set [23] is HCC827. Kind of data set: cells. Format: functional, cell-based. The conditions noted are these: Homo sapiens, HCC827, 72 h.
Description: Antiproliferative activity against human HCC827 cells assessed as cell growth inhibition incubated for 72 hrs by MTT assay
Data set [24] addresses Epidermal growth factor receptor (Homo sapiens, UniProt P00533, L858R/T790M).
Data set [25] has as its system NCI-H1975. Kind of data set: Antiproliferative activity against human NCI-H1975 cells assessed as cell growth inhibition incubated for 72 hrs by MTT assay. Type of data set: functional, cell-based. The settings on record: NCI-H1975, 72 h.
For data set [26], the system named is A549. Kind of data set: cells. Format: functional, cell-based. The conditions noted are these: Homo sapiens, A549, 48 h.
Description: Antiproliferative activity against human A549 cells assessed as cell growth inhibition incubated for 48 hrs by MTT assay
For data set [27], the system named is HepG2. Description: cells. Type of data set: functional, cell-based. The conditions noted are these: Homo sapiens, HepG2, 48 h.
Description: Antiproliferative activity against human HepG2 cells assessed as cell growth inhibition incubated for 48 hrs by MTT assay
The target of data set [28] is Epidermal growth factor receptor (Homo sapiens, UniProt P00533, 746-750DEL).
For data set [29], the system named is PC-9. Kind of data set: cells. Type of data set: functional, cell-based. The conditions noted are these: Homo sapiens, PC-9, 72 h.
Description: Antiproliferative activity against human PC-9 cells assessed as cell growth inhibition incubated for 72 hrs by SRB assay
Data set [30] is described as follows: MRT (0 to 24 hrs) in Sprague-Dawley rat plasma at 10 mg/kg, iv by LC-MS/MS analysis. Type of data set: ADME, organism-based.
For data set [31], the system named is A-431. Description: Antiproliferative activity against human A-431 cells assessed as cell growth inhibition incubated for 72 hrs by SRB assay. Type of data set: functional, cell-based. The conditions noted are these: A-431, 72 h.
A short description of data set [32]: AUC (0 to infinity) in Sprague-Dawley rat plasma at 10 mg/kg, iv by LC-MS/MS analysis. Further details: dose 10 mg/kg, route iv. Format: ADME, organism-based.
Data set [33] in a line: AUClast in Sprague-Dawley rat plasma at 10 mg/kg, iv by LC-MS/MS analysis. Format: ADME, organism-based. Further details: dose 10 mg/kg, route iv.
The subject of data set [34] is SK-OV-3. Description: cells. Type of data set: functional, cell-based. The conditions noted are these: Homo sapiens, SK-OV-3, 48 h.
Description: Antiproliferative activity against human SK-OV-3 cells assessed as cell growth inhibition incubated for 48 hrs by MTT assay
Data set [35] has as its system MDA-MB-231. Description: Antiproliferative activity against human MDA-MB-231 cells assessed as cell growth inhibition incubated for 48 hrs by MTT assay. Format: functional, cell-based. The conditions noted are these: MDA-MB-231, 48 h.
In data set [36] the test system is CNE. Kind of data set: cells. Format: functional, cell-based. The conditions noted are these: Homo sapiens, 48 h.
Description: Antiproliferative activity against human CNE cells assessed as cell growth inhibition incubated for 48 hrs by MTT assay
Data set [37] has as its system A549. Kind of data set: Radiosensitizing activity against human A549 cells assessed as radiosensitization ratio by MTT assay. Format: functional.

T2 sequence (P00533 whole entry): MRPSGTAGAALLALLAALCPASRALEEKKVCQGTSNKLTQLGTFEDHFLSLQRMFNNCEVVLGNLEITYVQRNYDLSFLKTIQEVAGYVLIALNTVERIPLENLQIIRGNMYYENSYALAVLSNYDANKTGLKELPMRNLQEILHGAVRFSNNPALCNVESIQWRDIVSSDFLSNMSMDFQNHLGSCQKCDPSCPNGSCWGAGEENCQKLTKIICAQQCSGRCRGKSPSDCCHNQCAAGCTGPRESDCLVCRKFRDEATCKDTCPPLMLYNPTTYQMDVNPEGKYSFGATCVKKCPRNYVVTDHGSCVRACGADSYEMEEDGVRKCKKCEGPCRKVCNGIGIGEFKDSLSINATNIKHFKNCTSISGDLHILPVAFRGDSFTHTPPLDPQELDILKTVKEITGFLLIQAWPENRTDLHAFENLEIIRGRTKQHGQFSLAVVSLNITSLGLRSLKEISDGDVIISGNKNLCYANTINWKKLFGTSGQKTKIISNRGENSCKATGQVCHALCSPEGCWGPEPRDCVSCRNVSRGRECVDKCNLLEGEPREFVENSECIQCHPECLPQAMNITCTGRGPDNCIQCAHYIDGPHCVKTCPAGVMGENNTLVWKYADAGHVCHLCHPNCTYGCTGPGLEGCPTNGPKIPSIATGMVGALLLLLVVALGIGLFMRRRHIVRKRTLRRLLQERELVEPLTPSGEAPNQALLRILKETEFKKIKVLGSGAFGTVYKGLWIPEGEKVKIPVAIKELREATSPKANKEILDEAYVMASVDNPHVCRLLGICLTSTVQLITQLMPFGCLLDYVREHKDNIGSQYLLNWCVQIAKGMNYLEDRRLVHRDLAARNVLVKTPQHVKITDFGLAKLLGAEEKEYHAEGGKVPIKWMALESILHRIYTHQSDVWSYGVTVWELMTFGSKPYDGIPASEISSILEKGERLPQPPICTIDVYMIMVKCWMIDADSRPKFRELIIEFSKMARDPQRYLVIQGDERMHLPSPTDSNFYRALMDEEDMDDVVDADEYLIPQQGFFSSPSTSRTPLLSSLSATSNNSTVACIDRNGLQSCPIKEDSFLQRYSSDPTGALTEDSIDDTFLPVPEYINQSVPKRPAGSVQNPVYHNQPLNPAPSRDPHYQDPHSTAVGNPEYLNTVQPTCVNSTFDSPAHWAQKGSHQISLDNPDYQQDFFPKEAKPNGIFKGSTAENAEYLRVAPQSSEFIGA
T1 sequence (P04626 whole entry): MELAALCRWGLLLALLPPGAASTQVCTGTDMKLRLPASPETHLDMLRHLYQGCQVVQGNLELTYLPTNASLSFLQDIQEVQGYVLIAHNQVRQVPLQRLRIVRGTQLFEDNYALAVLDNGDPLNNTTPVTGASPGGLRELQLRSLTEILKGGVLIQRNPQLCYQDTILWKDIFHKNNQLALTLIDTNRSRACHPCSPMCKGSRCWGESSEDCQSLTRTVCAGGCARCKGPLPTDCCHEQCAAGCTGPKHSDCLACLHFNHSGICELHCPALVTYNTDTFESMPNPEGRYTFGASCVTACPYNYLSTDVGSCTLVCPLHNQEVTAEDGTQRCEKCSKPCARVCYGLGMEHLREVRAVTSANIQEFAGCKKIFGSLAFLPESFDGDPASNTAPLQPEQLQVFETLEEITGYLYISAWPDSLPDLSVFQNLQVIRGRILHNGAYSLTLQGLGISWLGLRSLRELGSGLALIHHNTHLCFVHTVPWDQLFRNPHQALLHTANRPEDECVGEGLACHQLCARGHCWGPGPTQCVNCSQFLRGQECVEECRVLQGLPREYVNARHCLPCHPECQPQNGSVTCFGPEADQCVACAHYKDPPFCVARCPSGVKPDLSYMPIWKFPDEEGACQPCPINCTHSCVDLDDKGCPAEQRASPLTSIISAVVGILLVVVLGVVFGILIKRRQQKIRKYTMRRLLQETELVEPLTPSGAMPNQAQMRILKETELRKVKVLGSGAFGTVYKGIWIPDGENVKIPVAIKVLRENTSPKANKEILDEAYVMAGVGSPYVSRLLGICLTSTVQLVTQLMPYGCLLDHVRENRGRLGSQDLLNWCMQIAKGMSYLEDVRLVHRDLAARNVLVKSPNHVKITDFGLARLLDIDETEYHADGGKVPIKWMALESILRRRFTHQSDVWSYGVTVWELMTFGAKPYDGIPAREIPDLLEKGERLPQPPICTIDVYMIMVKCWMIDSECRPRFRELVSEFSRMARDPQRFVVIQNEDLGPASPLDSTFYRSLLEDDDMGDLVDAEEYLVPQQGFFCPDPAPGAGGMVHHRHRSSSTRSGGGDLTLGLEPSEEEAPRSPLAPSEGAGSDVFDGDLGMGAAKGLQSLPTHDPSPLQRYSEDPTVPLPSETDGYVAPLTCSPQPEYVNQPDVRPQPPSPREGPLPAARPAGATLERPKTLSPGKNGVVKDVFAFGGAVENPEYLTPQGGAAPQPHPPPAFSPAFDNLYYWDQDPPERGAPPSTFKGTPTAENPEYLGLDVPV
Sequence of Epidermal growth factor receptor (Homo sapiens, UniProt P00533, T790M/L858R) (P00533 25-1210 T790M/L858R limits assumed): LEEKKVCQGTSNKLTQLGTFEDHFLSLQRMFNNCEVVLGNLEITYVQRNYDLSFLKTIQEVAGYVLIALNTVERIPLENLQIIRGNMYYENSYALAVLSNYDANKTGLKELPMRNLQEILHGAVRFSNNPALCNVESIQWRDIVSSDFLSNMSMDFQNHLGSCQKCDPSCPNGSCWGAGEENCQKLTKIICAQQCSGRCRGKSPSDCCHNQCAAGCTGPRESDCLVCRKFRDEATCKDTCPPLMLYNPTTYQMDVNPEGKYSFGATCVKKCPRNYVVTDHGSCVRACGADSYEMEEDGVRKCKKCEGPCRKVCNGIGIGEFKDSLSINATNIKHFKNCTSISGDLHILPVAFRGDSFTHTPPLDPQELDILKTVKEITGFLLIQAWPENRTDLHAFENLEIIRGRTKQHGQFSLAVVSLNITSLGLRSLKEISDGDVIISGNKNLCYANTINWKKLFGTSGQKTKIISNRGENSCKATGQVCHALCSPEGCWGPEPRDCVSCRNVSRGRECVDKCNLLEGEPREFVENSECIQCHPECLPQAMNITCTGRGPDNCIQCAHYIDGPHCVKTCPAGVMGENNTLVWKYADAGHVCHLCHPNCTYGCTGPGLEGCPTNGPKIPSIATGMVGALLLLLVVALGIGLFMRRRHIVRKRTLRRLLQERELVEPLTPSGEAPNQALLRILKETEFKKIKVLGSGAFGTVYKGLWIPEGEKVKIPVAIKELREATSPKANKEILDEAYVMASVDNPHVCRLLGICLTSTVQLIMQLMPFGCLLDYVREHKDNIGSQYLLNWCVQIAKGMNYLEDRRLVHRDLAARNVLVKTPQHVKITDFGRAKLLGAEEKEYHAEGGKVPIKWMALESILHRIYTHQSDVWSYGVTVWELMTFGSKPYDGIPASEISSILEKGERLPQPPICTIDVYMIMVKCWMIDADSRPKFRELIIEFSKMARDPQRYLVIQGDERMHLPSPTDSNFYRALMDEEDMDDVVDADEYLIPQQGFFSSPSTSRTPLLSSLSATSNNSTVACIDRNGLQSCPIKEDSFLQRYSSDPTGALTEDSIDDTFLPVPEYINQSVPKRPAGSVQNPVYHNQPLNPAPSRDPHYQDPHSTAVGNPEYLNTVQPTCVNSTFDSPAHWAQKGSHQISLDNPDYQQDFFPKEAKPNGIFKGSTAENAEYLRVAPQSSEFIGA
Sequence of Epidermal growth factor receptor (Homo sapiens, UniProt P00533, L858R/T790M) (P00533 25-1210 T790M/L858R limits assumed): as above

Turning to `Cc1ccc(NC(=O)CSc2nc3cc4ccccc4cc3c(=O)n2-c2ccc(S(N)(=O)=O)cc2)cc1`, the IC50 (usually the concentration at which inhibition is half-maximal) in [1] amounted to 105 nM; in [2], 21 nM; in data set [3], 9 nM.
`C=CC(=O)Nc1cccc(Nc2nc(Nc3ccc(N4CCN(C(C)=O)CC4)cc3OC)ncc2C(F)(F)F)c1` [ROCILETINIB]: the IC50 in data set [4] was 6.5 µM; in data set [5], above 40 µM; in [6], 1.29 µM.
For the compound `CN(C)C/C=C/C(=O)Nc1cc2c(Nc3ccc(F)c(Cl)c3)ncnc2cc1O[C@H]1CCOC1` [AFATINIB], the Activity in data set [7] is listed as 13.53%.
As to `CN1C(=O)c2ccc(NC(=O)CSc3nc4cc5ccccc5cc4c(=O)n3-c3ccc(S(N)(=O)=O)cc3)cc2C1=O`, the figures for the IC50 in [8], in [9] and in data set [10] were 640 nM, 1320 nM and 500 nM, respectively. Also, the Activity in data set [11] was 0.18 µM.
As to `O=C(N/N=C/c1cnc(N2CCCC2)nc1)Nc1cc2c(Nc3ccc(F)c(Cl)c3)ncnc2cc1O[C@H]1CCOC1`, the IC50 in data set [4] came out at 5.9 µM; in [12], 4.63 µM; in data set [13] it was 2370 nM; in data set [14], 6.3 nM; in data set [15], 8.4 nM.
As to `COc1cc2ncnc(Nc3ccc(OCCn4ccnc4[N+](=O)[O-])c(Cl)c3)c2cc1OCCCN1CCOCC1`, the IC50 in data set [16] was 120 nM; in data set [17], 2460 nM; in data set [18], 1350 nM; in [19], 1590 nM; in [20], 1090 nM.
On to `COc1cc2ncnc(NCc3ccc(Cl)s3)c2cc1OC`, for which the IC50 in data set [21] was above 50 µM. Besides, the IC5 in data set [22] worked out at 3.4 µM.
For `C=CC(=O)Nc1ccccc1Nc1ncnc2cc(OC)c(OCCN3CCOCC3)cc12`, the concentration for half-maximal inhibition (IC50) was 32.4 µM in [4]; 34 µM in data set [5]; 650 nM in [23]; 13.5 µM in [6]; 4.3 nM in data set [24]; 8.7 µM in [25].
For the compound `O=C(O)c1cc(O)c2c(c1)C(=O)c1cccc(O)c1C2=O` [RHEIN], the IC50 came to 138 µM in [26] and 74.6 µM in data set [27].
Turning to `C#Cc1cccc(Nc2ncnc3cc(OC)c(OCCCN4CCOCC4)cc23)c1`, the IC50 was 1.23 nM in data set [28], 100 nM in data set [29] and below 100 nM in [31]. Also, in [30], the MRT last (commonly a mean duration of stay, worked out from the concentration-time curve) is 3.96 h. The area under the curve AUC(0-inf) (in general, total exposure, with the tail of the curve extrapolated) in data set [32] came to 6150 ng·h/mL. Moreover, the AUC(0-t) (in general, exposure summed from dosing to a finite time, without extrapolation to infinity) in data set [33] turned out to be 6110 ng·h/mL.
With `Cc1ccc(Nc2ncnc3ccc(NC(=O)c4cc(OCc5ccccc5)c5c(c4)C(=O)c4cccc(OCc6ccccc6)c4C5=O)cc23)cc1`, the IC50 in data set [34] is 12.5 µM; in [26], 23.3 µM; in [35], 3.2 µM; in data set [36] it was 2100 nM; in data set [27], 34.9 µM. For the same compound, the Ratio in data set [37] is 1.88.
